Active and inactive are the calls of the source. The rule behind the calls is not given here.

The test system of data set [1] is Rattus norvegicus. Kind of data set: Toxicity in glucocorticoid-induced Wistar rat osteoporosis model assessed as white blood cells at 2.5 mg/kg/day, im administered twice each week for 8 weeks (reference value: 6.28 +/- 2.78 x 10^9/L). The data set is classed as organism-based. The following applies: in vivo, 1344 h. The arrangement: route intramuscular.
Data set [2] relates to Rattus norvegicus. As to the kind of experiment: Toxicity in glucocorticoid-induced Wistar rat osteoporosis model assessed as lymph level at 2.5 mg/kg/day, im administered twice each week for 8 weeks (reference value: 50.35 +/- 12.96%). Set-up: route intramuscular. The following applies: in vivo, 1344 h. Format: organism-based.
Data set [3] deals with Rattus norvegicus. As to the kind of experiment: Toxicity in glucocorticoid-induced Wistar rat osteoporosis model assessed as neutrophilic granulocytes level at 2.5 mg/kg/day, im administered twice each week for 8 weeks (reference value: 31.95 +/- 8.33%). The data set is classed as organism-based. Set-up: route intramuscular. The following applies: in vivo, 1344 h.
Data set [4] deals with Rattus norvegicus. Kind of data set: Toxicity in glucocorticoid-induced Wistar rat osteoporosis model assessed as aspartate transaminase level at 2.5 mg/kg/day, im administered twice each week for 8 weeks (reference value: 177.55 +/- 116.98 U/L). Format: organism-based. Set-up: route intramuscular. Conditions: in vivo, 1344 h.
Data set [5] relates to Rattus norvegicus. As to the kind of experiment: Toxicity in glucocorticoid-induced Wistar rat osteoporosis model assessed as alanine transaminase level at 2.5 mg/kg/day, im administered twice each week for 8 weeks (reference value: 43.73 +/- 36.21 U/L). Format: organism-based. Set-up: route intramuscular. Conditions: in vivo, 1344 h.
Data set [6] deals with Rattus norvegicus. Kind of data set: Toxicity in glucocorticoid-induced Wistar rat osteoporosis model assessed as triglycerides level at 2.5 mg/kg/day, im administered twice each week for 8 weeks (reference value: 1.13 +/- 0.69 mmol/L). The data set is classed as organism-based. Set-up: route intramuscular. Conditions: in vivo, 1344 h.
Data set [7] relates to Rattus norvegicus. Kind of data set: Antiosteoporotic activity in glucocorticoid-induced Wistar rat osteoporosis model assessed as appearance of turbulent and sparse rarefection of trabecula at 2.5 mg/kg/day, im administered twice each week for 8 weeks by toluidine blue staining-based light microscopic analysis. Format: functional, organism-based.
For data set [8], the system named is Rattus norvegicus. Kind of data set: Antiosteoporotic activity in glucocorticoid-induced Wistar rat osteoporosis model assessed as trabecular bone volume at 2.5 mg/kg/day, im administered twice each week for 8 weeks by fluorescence assay (reference value: 33.09 +/- 5.15%). Format: functional, Trabecula. The following applies: route intramuscular.
Data set [9] concerns Rattus norvegicus. As to the kind of experiment: Antiosteoporotic activity in glucocorticoid-induced Wistar rat osteoporosis model assessed as trabecula formation surface at 2.5 mg/kg/day, im administered twice each week for 8 weeks by fluorescence assay (reference value: 7.82 +/- 2.46%). The data set is classed as functional. The following applies: route intramuscular.
Data set [10] relates to Rattus norvegicus. As to the kind of experiment: Antiosteoporotic activity in glucocorticoid-induced Wistar rat osteoporosis model assessed as trabecula resorption surface at 2.5 mg/kg/day, im administered twice each week for 8 weeks by fluorescence assay (reference value: 7.22 +/- 2.04%). Format: functional. The following applies: route intramuscular.
In data set [11] the test system is Rattus norvegicus. As to the kind of experiment: Antiosteoporotic activity in glucocorticoid-induced Wistar rat osteoporosis model assessed as mineral apposition rate at 2.5 mg/kg/day, im administered twice each week for 8 weeks by fluorescence assay (reference value: 1.06 +/- 0.27 micrometer/day). The following applies: route intramuscular. The data set is classed as functional.

Consider `C[C@@H]1C[C@H]2[C@@H]3CCC4=CC(=O)C=C[C@]4(C)[C@@]3(F)[C@@H](O)C[C@]2(C)[C@@]1(O)C(=O)CO` [DEXAMETHASONE], for which the Activity was determined as 6.58 ×10⁹ /L in [1]; 25.77% in data set [2]; 53.03% in [3]; 213 U/L in data set [4]; 63.64 U/L in data set [5]; 1.63 mmol/L in [6]. For the same compound, the Activity amounted to 18.46% in [8], 4.49% in data set [9], 11.8% in data set [10] and 0.76 micrometer/day in data set [11]. Moreover, the result in data set [7] was inactive.
